Laboratory results as given in paper PMC5818264 (Journal of the American Chemical Society, 2017).

Assays:
[1] = target: T1, MelBEc (MelB homologue from E. coli) (Escherichia coli, UniProt P02921); experiment: Trp to dansyl FRET in detergent extract of membrane vesicles; conditions: […] D^2G; D-NBM-C11; sugar binding site
[2] = target: T2, MelBSt (melibiose permease of Salmonella typhimurium) (Salmonella enterica, UniProt P30878); experiment: as above; conditions: […] D^2G; DDM or D-NBM-C11; sugar binding site
[3] = target: LeuT (leucine transporter) (Aquifex aeolicus, UniProt O67854); experiment: scintillation proximity assay; type: binding; conditions: labelled compound; DDM or NBMs at CMC + […] or […] wt %; room temperature
[4] = target: T1, MelBEc (MelB homologue from E. coli); experiment: reversal of Trp to D^2G FRET in detergent extract of membrane vesicles; type: binding; conditions: saturating melibiose; […] D^2G; D-NBM-C11; competitive
[5] = target: T2, MelBSt (melibiose permease of Salmonella typhimurium); experiment: as above; type: binding; conditions: saturating melibiose; […] D^2G; DDM or D-NBM-C11; competitive

T2 sequence (P30878 whole entry): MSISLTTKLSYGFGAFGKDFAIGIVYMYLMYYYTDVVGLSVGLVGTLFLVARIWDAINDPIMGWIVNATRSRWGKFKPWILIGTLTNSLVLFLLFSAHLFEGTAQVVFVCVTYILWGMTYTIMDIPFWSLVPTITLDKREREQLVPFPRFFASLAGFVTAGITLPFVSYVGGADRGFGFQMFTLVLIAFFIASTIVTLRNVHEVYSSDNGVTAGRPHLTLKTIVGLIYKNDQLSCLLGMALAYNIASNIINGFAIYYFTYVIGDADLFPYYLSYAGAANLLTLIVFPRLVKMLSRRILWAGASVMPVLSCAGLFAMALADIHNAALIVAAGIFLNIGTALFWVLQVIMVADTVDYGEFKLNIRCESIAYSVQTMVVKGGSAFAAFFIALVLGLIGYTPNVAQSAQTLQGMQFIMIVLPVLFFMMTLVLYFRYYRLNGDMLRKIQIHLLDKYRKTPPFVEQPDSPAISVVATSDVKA
T1 sequence (P02921 2-473): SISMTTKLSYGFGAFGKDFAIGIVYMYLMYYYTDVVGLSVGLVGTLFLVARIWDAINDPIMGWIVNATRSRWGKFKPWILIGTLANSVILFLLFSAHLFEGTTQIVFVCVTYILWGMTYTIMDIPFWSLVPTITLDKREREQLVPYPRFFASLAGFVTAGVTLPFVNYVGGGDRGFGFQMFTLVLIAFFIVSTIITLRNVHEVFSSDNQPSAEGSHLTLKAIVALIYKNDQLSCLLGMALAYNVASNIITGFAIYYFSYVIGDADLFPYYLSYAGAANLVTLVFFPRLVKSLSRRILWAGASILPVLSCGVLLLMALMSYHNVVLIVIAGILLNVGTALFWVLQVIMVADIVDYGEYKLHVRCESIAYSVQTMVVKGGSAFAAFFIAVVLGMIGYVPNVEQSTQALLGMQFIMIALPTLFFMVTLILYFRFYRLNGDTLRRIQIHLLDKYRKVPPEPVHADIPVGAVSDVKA

SMILES: CN(C)c1cccc2c(S(=O)(=O)NCCS[C@@H]3O[C@H](CO)[C@H](O)[C@H](O)[C@H]3O)cccc12 [2′-(N-dansyl) aminoalkyl-1-thio-β-D-galactopyranoside]
- Trp to dansyl FRET in detergent extract of membrane vesicles [1]: both MelB proteins gave remarkable levels of galactoside binding in D-NBM-C11
- Trp to dansyl FRET in detergent extract of membrane vesicles [2]: FRET from tryptophan residues (Trp) to a fluorescent ligand

SMILES: CC(C)C[C@H](N)C(=O)O [[^3H]-Leu]
- scintillation proximity assay [3]: ability of the transporter to bind radiolabeled leucine [^3H-Leu]

SMILES: OC[C@H]1O[C@H](OC[C@H]2OC(O)[C@H](O)[C@@H](O)[C@@H]2O)[C@H](O)[C@@H](O)[C@H]1O (some centres unmarked) [melibiose]
- reversal of Trp to D^2G FRET in detergent extract of membrane vesicles [4]: both MelB proteins gave remarkable levels of galactoside binding in D-NBM-C11
- reversal of Trp to D^2G FRET in detergent extract of membrane vesicles [5]: MelBSt solubilized in DDM showed an effective melibiose reversal of FRET
